Source: patent US20090326007A1, “Compounds and methods for modulating sir2 protein activity” (priority 2007, published 2009)
Entries after “also recorded” stand apart in the source; their conditions may differ. Like-named read-outs stand apart in the source and are kept apart here.

Legend:
Hst2 (1-294) = Hst2 (1-294) (Saccharomyces cerevisiae, UniProt P53686); assay: High throughput screen for Hst2 effectors in the presence of nicotinamide (fluorimetric); conditions: Table 3, activators, nicotinamide present
Experimental: High Throughput Screening (HTS). A high throughput screening protocol based on the SIRT1 Fluorimetric Activity Assay/Drug Discovery Kit was developed (BIOMOL International, Inc., Plymouth Meeting, Pa.). […] One hundred nanoliters of either a DMSO control or a compound from the small molecule screening library was added to each well by pinning. […] After 45 minutes, each plate was read on a fluorescence plate reader at an excitation wavelength of 360 nm and an emission wavelength of 460 nm. […] The fluorescence signal from each well was normalized to the DMSO controls on each 384-well plate and compared to a DMSO control population based on the following equation:
where χ is the fluorescence signal of the well, μ is the mean of the control (DMSO) population and σ is the standard deviation of the control population. […]

human SIRT3 = target: T1, human SIRT3 (Homo sapiens, UniProt Q9NTG7); assay: Inhibition assay against human SIRT3 (fluorigenic)
T1 sequence (Q9NTG7 1-399): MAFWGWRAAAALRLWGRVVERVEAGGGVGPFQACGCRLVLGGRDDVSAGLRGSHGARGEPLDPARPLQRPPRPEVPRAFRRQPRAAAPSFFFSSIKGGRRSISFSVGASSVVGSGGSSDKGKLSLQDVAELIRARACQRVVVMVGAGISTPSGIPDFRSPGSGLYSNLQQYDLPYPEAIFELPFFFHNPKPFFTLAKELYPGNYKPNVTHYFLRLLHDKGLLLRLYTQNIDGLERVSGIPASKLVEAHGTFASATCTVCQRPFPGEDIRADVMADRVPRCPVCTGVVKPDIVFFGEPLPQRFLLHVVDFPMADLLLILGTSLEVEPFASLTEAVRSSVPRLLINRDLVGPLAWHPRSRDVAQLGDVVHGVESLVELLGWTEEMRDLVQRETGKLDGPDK
Experimental: (§3) Human recombinant SIRT3 was purchased from Enzo Life Sciences.
(§4) Inhibition Assay Against Human SIRT2 and SIRT3. […] Two independent measurements were performed for each compound and the average and standard deviation are reported.

Hst2 [1] = target: T2, Hst2 (Saccharomyces cerevisiae, UniProt P53686)
Experimental: (§5) IC50 Determination. […] The dose-response curves were then fit to one-site competition or sigmoidal-dose response curves as appropriate in [sequence] PRISM (GraphPad Software, La Jolla, Calif.) and the IC50 was determined. Three independent IC50 measurements were performed for each compound and the average and standard deviation are reported.
(§6) The resulting deacetylase activity for the three experiments was averaged and reported as a percentage relative to control wells containing no inhibitor.

Hst2 [2] = target: T2, Hst2; assay: SAR analysis, fluorigenic assay at 50 and 500 μM; format: biochemical; conditions: Table 7, 500 μM compound, relative to control; read-out: % Activity 500 μM
Description: Structure Activity Relationship (SAR) Analysis.

Hst2 [3] = target: T2, Hst2; assay: Competition assay (inhibition mode versus NAD+ and acetyl-lysine substrate); format: biochemical
Experimental: Competition Assay. […] The fluorigenic assay described above was used with a fixed enzyme concentration of 1 μM. When competition with NAD^+ was being tested, the FLUOR DE LYS-SIRT1 deacetylase substrate was held at a constant concentration of 100 μM and the NAD^+ was titrated from ⅓-5× KmNAD+ (5-80 μM). […] The inhibitors were titrated from ˜½-several times their estimated Ki as indicated. The reaction time was 15 minutes, and each condition was tested in duplicate. The Km, kcat and kcat/Km values were determined by direct fit of the data in SIGMAPLOT (Systat Software, Point Richmond, Calif.) to the Michealis-Menten equation. The Ki and Kis (the slope and intercept inhibition constants, respectively) and the competition type were also determined by a direct fit in SIGMAPLOT to both partial and full competitive, noncompetitive, uncompetitive and mixed competition models. Best-fit models were determined by several statistical methods including R^2, AICs and Sy.x as well as empirical evaluation of α and β values.
To determine the mechanism of inhibition of the compounds identified by HTS and to gain insight as to where these compounds may bind to the enzyme, inhibition modes were determined by varying each of the substrates with the other maintained at a fixed, saturating concentration (Table 11).

full-length human SIRT1 = target: T3, full-length human SIRT1 (Homo sapiens, UniProt Q96EB6); assay: IC50 determination, fluorigenic deacetylase assay, FL SIRT1; conditions: read-out: SIRT1 IC50; Table 5; 240 μM NAD+, 200 μM substrate, 1 μM FL SIRT1, 15 min
T3 sequence (Q96EB6 1-747): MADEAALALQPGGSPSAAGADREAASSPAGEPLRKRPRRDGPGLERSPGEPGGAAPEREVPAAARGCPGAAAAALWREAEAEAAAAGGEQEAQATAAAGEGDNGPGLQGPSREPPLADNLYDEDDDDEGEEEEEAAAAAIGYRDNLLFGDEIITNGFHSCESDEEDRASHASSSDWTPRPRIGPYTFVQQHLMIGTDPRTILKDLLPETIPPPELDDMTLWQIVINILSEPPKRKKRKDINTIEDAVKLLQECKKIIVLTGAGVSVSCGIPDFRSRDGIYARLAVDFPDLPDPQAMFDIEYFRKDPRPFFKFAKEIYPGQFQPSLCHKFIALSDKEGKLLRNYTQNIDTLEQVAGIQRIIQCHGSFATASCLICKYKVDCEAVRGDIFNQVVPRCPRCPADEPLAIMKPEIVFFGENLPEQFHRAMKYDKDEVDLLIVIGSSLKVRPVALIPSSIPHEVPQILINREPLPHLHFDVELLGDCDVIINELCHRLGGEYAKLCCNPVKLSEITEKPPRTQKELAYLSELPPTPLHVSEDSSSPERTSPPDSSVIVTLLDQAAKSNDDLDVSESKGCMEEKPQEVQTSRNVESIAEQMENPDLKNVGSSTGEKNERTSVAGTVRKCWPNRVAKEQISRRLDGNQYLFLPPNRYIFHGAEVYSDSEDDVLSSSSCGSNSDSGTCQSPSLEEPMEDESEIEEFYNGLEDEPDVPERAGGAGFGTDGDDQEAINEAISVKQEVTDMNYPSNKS
Experimental: Cells were harvested and lysed by sonication in buffer containing 50 mM Tris, pH 7.5, 200 mM NaCl, 5 mM imidizole, 10 mM β-mercaptoethanol (BME) and 0.1 mg/mL PMSF. Soluble FL SIRT1 was purified by Ni-NTA (Qiagen, Valencia, Calif.) in a buffer containing 50 mM Tris, pH 7.5, 300 mM NaCl, 10 mM BME, 5% glycerol and 30-600 mM imidizole followed by SUPERDEX-200 gel filtration in buffer containing 50 mM Tris, pH 7.5, 150 mM NaCl, and 10 mM BME. FL SIRT1 eluted between the 670 kDa and 158 kDa globular protein standards. Since SIRT1 is known to aggregate after several days at 4° C., the protein was aliquoted and frozen at −80° C. for use in fluorigenic assays.
as §5

human SIRT2 = target: T4, human SIRT2 (Homo sapiens, UniProt Q8IXJ6); assay: Inhibition assay against human SIRT2 (fluorigenic); conditions: for remaining activity at 100 µM: read-out: percent of residual enzyme activity, SIRT2
T4 sequence (Q8IXJ6 1-352 isoform Q8IXJ6-2): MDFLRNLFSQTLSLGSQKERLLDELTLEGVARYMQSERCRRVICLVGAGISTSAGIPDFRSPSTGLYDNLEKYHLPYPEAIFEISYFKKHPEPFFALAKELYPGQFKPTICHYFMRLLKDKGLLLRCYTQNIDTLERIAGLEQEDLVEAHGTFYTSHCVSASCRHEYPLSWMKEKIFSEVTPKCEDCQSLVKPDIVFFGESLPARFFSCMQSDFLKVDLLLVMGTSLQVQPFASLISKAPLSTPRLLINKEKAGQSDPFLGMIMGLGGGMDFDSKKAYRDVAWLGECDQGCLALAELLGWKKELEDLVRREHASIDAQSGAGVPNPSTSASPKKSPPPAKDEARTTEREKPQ
Experimental: as §3, §4

yHst2 D118N mutant = target: T5, yHst2 D118N mutant (Saccharomyces cerevisiae, UniProt P53686, D118N); assay: Kinetic assay, deacetylase fluorescent activity assay kit, D118N mutant; format: biochemical
T5 construct: Point mutations in yHst2 (1-294) were generated from the pRSET-A plasmid; His6 (N); made in house
Description: (§1) Protein Preparation, Crystallization and Structure Determination.
(§2) Kinetic Assays. […] Data taken in triplicate were fitted to the equation l/v=(Km/Vmax)(1/[S])+1/Vmax, using a root mean least squares approach in the form of a double reciprocal Lineweaver-Burk plot where the x-intercept is equal to −l/Km. […] The slopes of the Dixon Plot were replotted versus 1/[NAD^+], and the slope of the corresponding line was set equal to Km/(Vmax*Ki), in order to calculate Ki.

wild-type yHst2 = target: T6, wild-type yHst2 (Saccharomyces cerevisiae, UniProt P53686); assay: Kinetic assay, deacetylase fluorescent activity assay kit, wild-type enzyme; format: biochemical; conditions: read-out: Km for NAD+
T6 construct: The 64-residue C-terminal deletion construct of yHst2 (residues 1-294) and point mutants were purified; His6 (N); made in house
Description: as §2

yHst2 I117F mutant = target: T7, yHst2 I117F mutant (Saccharomyces cerevisiae, UniProt P53686, I117F); assay: Kinetic assay, deacetylase fluorescent activity assay kit, I117F mutant; format: biochemical
T7 construct: Point mutations in yHst2 (1-294) were generated from the pRSET-A plasmid; His6 (N); made in house
Description: as §1, §2

yHst2 I117V mutant = target: T8, yHst2 I117V mutant (Saccharomyces cerevisiae, UniProt P53686, I117V); assay: Kinetic assay, deacetylase fluorescent activity assay kit, I117V mutant; format: biochemical
T8 construct: Point mutations in yHst2 (1-294) were generated from the pRSET-A plasmid; His6 (N); made in house
Description: as §1, §2

Hst2 [4] = target: T2, Hst2; assay: Reversibility assay; format: biochemical; conditions: preincubation at 10x IC50, 100-fold dilution
Experimental: Reversibility Assay. Each of the inhibitor scaffolds identified in the HTS was tested to determine whether they were reversible, slowly reversible or irreversible inhibitors of Hst2. The reversibility of each compound was identified using the fluorigenic assay described herein.
To aid in the determination of the mechanism of inhibition for each newly identified inhibitor and to assay reversibly of inhibitor binding to the enzyme, it was tested whether or not inhibitor binding to the Sir2 enzyme was rapidly reversible, slowly reversible or irreversible. […] Then, the enzyme was diluted 100-fold into reaction wells with both substrates, and the amount of product formation over time was monitored (FIG. 2).

trypsin = assay: Control for inhibition of the trypsin assay developer; format: biochemical
Description: These compounds were not pursued further.

Hst2 [5] = target: T2, Hst2; assay: IC50 determination, fluorigenic deacetylase assay, Hst2
Experimental: as §5, §6

[6] = read-out: Hst2 IC50, Table 5, 160 μM NAD+, 100 μM substrate, 1 μM Hst2, 15 min

T2 sequence (P53686 1-294): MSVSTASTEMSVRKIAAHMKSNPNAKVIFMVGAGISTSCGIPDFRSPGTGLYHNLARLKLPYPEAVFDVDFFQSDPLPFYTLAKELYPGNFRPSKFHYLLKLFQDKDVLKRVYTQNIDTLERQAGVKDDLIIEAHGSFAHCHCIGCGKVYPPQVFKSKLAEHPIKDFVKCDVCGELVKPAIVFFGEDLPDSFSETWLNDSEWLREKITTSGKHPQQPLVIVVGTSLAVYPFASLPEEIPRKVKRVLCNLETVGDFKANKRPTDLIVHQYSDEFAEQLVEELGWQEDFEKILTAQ
T7 sequence (P53686 1-294 I117F): as the sequence (P53686 1-294) above, with I117F counted along it
T5 sequence (P53686 1-294 D118N): as the sequence (P53686 1-294) above, with D118N counted along it
T8 sequence (P53686 1-294 I117V): as the sequence (P53686 1-294) above, with I117V counted along it
Sequence of Hst2 (1-294) (P53686 1-294): as the sequence (P53686 1-294) above
T6 sequence (P53686 1-294): as above

CC1(C)CC(=O)C2=C(C1)NC1=C(C(=O)CC(C)(C)C1)C2c1cccc(F)c1
Fold Activation (Hst2 (1-294)): 2.2 Fold

COCC#CC1c2cc(O)c(OC)cc2CCN1C (stereo not shown) [Compound 15a, 6-Methoxy-1-(3-methoxy-prop-1-ynyl)-2-methyl-1,2,3,4-tetrahydro-isoquinolin-7-ol]
inhibitory activity against human SIRT3 (in words) (human SIRT3; 50 or 100 μM compound): only weak inhibitory activity | remaining activity at 100 µM (human SIRT3; read-out: percent of residual enzyme activity, SIRT3): 96.4 ± 0.5% | IC50 lower than that of compound 15b (Hst2 [1]): about 2 fold | activity at 500 µM (Hst2 [2]): 5% | kcat (Hst2 [3]; substrate NAD+ varied): 0.0137 ± 0.00233 s⁻¹ | Inhibition Mechanism (Hst2 [3]; substrate NAD+ varied, acetyl-lysine substrate 100 μM): fully mixed | kcat (Hst2 [3]; substrate acetyl-lysine varied): 0.0167 ± 0.0033 s⁻¹ | Inhibition Mechanism (Hst2 [3]; substrate acetyl-lysine varied, NAD+ 160 μM): fully non-competitive; also recorded: NC (full) | α (mixed inhibition model) (Hst2 [3]; with respect to NAD+): 2.6 | IC50 (full-length human SIRT1): 570 ± 200 µM | inhibitory activity against human SIRT2 (in words) (human SIRT2; 50 or 100 μM compound): only weak inhibitory activity | remaining activity at 100 µM (human SIRT2): 92.1 ± 1.5%

NC(=O)c1ccc[n+]([C@@H]2O[C@H](COP(=O)([O-])OP(=O)(O)OC[C@H]3O[C@@H](n4cnc5c(N)ncnc54)[C@H](O)[C@@H]3O)[C@@H](O)[C@H]2O)c1 [NAD^+]
increase of Km for NAD+ over wild-type (yHst2 D118N mutant; D118N mutant versus wild-type): more than 28 fold | Km (yHst2 D118N mutant; D118N mutant, read-out: apparent Km for NAD+): 454 µM | Km (wild-type yHst2): 16.1 µM | increased Km for NAD+ compared to wild-type enzyme (yHst2 I117F mutant; I117F mutant versus wild-type): less than 2 fold | Km (yHst2 I117F mutant; I117F mutant, read-out: Km for NAD+): 25.8 µM | Km (yHst2 I117V mutant; I117V mutant, read-out: Km for NAD+): 25.5 µM

NC(=O)c1cccnc1 [Nicotinamide (1), Nicotinamide, reference compound]
increase of Kii for nicotinamide over wild-type enzyme (yHst2 I117F mutant; I117F mutant versus wild-type): ~6 fold | slope of progress curve with respect to the enzyme control (Hst2 [4]): 30% | decrease of Kii for nicotinamide over wild-type enzyme (yHst2 I117V mutant; I117V mutant versus wild-type): ~2.5 fold | remaining activity at 100 µM (human SIRT2): 26 ± 1.4%

(Pyrido[2,3-a]5-nitropyrrolo[3,4-c]carbazole-5,7(6H)-dione) (cyclopentadienyl)monocarbonyl ruthenium [Compound 16b]
inhibition of trypsin (trypsin): did not inhibit trypsin | IC50 (Hst2 [5]; Table 4, Hst2): 24 ± 16 µM | IC50 values (range in words) (Hst2 [5]; Table 5): low micromolar | IC50 (Hst2 [5]; [6]): 24 ± 16 µM

Pyrido[2,3-a]4-nitropyrrolo[3,4-c]carbazole-5,7(6H)-dione) (cyclopentadienyl) monocarbonyl ruthenium [Compound 16a]
inhibition of trypsin (trypsin): did not inhibit trypsin | IC50 (Hst2 [5]; Table 4, Hst2): 36 ± 12 µM | IC50 values (range in words) (Hst2 [5]; Table 5): low micromolar | IC50 (Hst2 [5]; [6]): 36 ± 12 µM
